We go through three compounds from ChEMBL document CHEMBL1240295, “Specificity and mechanism of action of some commonly used protein kinase inhibitors” (Biochem J, 2000).

One may read the pIC50 as the IC50 on a negative log10 scale, so that one unit is a factor of ten. Higher therefore signals a small IC50. As a reminder, the inhibition is the relative decrease from the control value, in per cent. Low readings indicate little suppression, high ones strong suppression.

Experiment [1] addresses T1, Serine/threonine-protein kinase Chk1 (Homo sapiens) (UniProt O14757).
T1 sequence (whole entry): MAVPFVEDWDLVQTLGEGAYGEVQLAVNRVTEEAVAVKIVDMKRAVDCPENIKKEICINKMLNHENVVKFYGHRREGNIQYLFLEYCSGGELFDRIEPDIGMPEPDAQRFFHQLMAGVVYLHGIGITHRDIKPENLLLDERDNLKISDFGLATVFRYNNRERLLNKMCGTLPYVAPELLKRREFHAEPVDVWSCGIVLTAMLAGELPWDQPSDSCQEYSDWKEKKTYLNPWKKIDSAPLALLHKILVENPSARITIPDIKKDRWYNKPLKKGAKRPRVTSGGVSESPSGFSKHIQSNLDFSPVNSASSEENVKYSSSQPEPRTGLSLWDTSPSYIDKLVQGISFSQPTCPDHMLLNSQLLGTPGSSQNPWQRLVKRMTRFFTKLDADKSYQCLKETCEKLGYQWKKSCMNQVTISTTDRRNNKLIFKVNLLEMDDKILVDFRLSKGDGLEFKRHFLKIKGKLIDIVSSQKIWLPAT
The note with it: at 10 µM.
Description: Inhibition of His-tagged human CHK1 expressed in Escherichia coli at 10 uM

For experiment [2], the target named is T2, Mitogen-activated protein kinase 13 (Homo sapiens) (UniProt O15264).
T2 sequence (whole entry): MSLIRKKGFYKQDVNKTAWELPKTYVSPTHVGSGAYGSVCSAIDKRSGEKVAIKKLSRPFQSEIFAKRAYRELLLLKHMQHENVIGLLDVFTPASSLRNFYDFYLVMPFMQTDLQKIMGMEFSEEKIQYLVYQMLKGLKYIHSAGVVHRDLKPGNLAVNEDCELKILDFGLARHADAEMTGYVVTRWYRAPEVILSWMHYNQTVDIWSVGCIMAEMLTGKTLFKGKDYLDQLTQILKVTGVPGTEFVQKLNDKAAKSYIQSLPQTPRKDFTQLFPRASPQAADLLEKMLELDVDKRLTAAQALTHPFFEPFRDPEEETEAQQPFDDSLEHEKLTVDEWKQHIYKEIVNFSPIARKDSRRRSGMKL
As to conditions: at 10 µM.
Description: Inhibition of Gst-tagged human SAPK4/p38delta expressed in Escherichia coli at 10 uM

Experiment [3] has as its target Glycogen synthase kinase-3 beta (Homo sapiens, UniProt P49841). The note with it: Sf21, at 10 µM.
Description: Inhibition of His-tagged human GSK3b expressed in Sf21 cells at 10 uM
For experiment [4], the species on record is Bos taurus. As to conditions: at 10 µM.
Description: Inhibition of bovine heart PKA at 10 uM
Experiment [5] has as its target Mitogen-activated protein kinase 1 (Homo sapiens) (UniProt P28482). The note with it: at 10 µM.
Description: Inhibition of Gst-tagged human MAPK2/ERK2 expressed in Escherichia coli at 10 uM
For experiment [6], the target named is Protein kinase C alpha type (Homo sapiens, UniProt P17252). The note with it: at 10 µM.
Description: Inhibition of His-tagged human PKCalpha expressed in Escherichia coli at 10 uM
Experiment [7] has as its target Mitogen-activated protein kinase 14 (Homo sapiens) (UniProt Q16539). As to conditions: at 10 µM.
Description: Inhibition of Gst-tagged human SAPK2a/p38 expressed in Escherichia coli at 10 uM
The species entered for experiment [8] is Oryctolagus cuniculus. The note with it: Muscle tissue, at 10 µM.
Description: Inhibition of MAPKAPK1b from rabbit skeletal muscle at 10 uM
Experiment [9] addresses T3, Serine/threonine-protein kinase Sgk1 (Homo sapiens) (UniProt O00141).
T3 sequence (whole entry): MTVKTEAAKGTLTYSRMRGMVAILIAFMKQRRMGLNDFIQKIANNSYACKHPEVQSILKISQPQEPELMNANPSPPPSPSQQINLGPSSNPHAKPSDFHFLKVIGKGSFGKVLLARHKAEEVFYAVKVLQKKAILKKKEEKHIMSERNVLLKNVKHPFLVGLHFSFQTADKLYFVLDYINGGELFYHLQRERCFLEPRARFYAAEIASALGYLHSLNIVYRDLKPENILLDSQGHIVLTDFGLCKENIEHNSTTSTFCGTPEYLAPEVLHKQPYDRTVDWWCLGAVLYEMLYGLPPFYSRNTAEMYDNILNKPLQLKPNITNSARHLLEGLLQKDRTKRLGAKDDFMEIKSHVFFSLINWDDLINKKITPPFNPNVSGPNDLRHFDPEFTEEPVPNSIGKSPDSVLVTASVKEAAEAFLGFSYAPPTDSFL
As to conditions: Sf9, at 10 µM.
Description: Inhibition of His-tagged human SGK expressed in Sf9 cells at 10 uM

Experiment [10] has as its target T4, MAP kinase-activated protein kinase 5 (Homo sapiens) (UniProt Q8IW41).
T4 sequence (whole entry): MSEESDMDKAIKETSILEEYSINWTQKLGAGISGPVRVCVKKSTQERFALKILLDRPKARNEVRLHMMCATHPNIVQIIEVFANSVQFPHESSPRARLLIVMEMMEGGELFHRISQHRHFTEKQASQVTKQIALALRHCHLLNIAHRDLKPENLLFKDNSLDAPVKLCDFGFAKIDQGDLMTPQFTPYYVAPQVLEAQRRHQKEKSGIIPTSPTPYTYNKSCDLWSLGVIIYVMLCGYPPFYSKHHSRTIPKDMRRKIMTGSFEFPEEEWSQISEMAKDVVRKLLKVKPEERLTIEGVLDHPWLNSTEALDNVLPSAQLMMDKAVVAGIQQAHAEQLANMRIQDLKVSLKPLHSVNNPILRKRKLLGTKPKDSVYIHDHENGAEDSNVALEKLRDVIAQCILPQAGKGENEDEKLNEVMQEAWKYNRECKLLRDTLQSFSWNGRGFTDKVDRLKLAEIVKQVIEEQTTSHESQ
The note with it: Sf9, at 10 µM.
Description: Inhibition of His-tagged human PRAK expressed in Sf9 cells at 10 uM

The target of experiment [11] is Mitogen-activated protein kinase 11 (Homo sapiens) (UniProt Q15759). The note with it: at 10 µM.
Chain of Mitogen-activated protein kinase 11 (Homo sapiens) (Q15759 whole entry): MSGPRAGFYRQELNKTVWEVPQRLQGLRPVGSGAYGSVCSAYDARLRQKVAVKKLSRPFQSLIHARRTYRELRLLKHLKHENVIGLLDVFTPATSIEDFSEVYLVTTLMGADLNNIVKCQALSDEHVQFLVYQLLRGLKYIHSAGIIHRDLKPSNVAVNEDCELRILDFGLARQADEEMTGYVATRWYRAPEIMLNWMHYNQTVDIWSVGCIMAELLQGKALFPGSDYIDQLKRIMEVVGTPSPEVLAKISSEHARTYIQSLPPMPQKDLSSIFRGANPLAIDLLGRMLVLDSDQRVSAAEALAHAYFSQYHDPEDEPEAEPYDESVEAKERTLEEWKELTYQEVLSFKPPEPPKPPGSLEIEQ
Description: Inhibition of Gst-tagged human SAPK2b/p38--beta-2 expressed in Escherichia coli at 10 uM
Experiment [12] deals with Mitogen-activated protein kinase 8 (Homo sapiens) (UniProt P45983). The note with it: at 10 µM.
Chain of Mitogen-activated protein kinase 8 (Homo sapiens) (P45983 whole entry): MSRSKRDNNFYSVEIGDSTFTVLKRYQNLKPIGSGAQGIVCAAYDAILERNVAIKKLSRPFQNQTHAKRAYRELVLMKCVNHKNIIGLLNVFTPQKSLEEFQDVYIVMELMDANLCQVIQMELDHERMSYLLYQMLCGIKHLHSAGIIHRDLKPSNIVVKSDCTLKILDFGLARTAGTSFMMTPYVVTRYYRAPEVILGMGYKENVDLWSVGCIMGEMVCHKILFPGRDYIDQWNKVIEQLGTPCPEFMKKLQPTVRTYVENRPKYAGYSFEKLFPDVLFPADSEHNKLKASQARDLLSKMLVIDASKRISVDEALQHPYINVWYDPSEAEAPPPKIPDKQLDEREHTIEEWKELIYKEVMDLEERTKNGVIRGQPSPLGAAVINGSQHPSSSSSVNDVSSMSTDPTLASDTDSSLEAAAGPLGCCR
Description: Inhibition of Gst-tagged human JNK1a1 expressed in Escherichia coli at 10 uM
Experiment [13] has as its target T5, Ribosomal protein S6 kinase beta-1 (Homo sapiens, UniProt P23443). The note with it: at 10 µM.
Description: Inhibition of His-tagged human S6K1 expressed in Escherichia coli at 10 uM
Experiment [14] has as its target RAC-alpha serine/threonine-protein kinase (Homo sapiens) (UniProt P31749). As to conditions: Sf9, at 10 µM.
Description: Inhibition of human PKBalpha expressed in SF9 cells at 10 uM
Experiment [15] is filed under the species Rattus norvegicus. As to conditions: at 10 µM.
Description: Inhibition of rat liver AMPK at 10 uM
The species entered for experiment [16] is Oryctolagus cuniculus. As to conditions: at 10 µM.
Description: Inhibition of rabbit MKK1 expressed in Escherichia coli at 10 uM
In experiment [17] the target is T6, Mitogen-activated protein kinase 12 (Homo sapiens) (UniProt P53778).
T6 sequence (whole entry): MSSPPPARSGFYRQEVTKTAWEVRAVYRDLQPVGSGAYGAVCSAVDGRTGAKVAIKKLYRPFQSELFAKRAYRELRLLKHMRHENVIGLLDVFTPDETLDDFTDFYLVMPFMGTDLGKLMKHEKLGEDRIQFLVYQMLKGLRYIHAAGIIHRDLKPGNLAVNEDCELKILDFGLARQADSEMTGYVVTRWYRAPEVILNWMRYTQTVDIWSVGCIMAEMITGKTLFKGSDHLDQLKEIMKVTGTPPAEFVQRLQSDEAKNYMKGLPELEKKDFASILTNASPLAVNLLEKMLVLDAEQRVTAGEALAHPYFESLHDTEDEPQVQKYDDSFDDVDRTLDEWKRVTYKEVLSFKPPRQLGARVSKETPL
As to conditions: at 10 µM.
Description: Inhibition of Gst-tagged human SAPK3/p38gamma expressed in Escherichia coli at 10 uM

For experiment [18], the target named is MAP kinase-activated protein kinase 2 (Homo sapiens, UniProt P49137). The note with it: at 10 µM.
Description: Inhibition of Gst-tagged human MAPKAPK2 expressed in Escherichia coli at 10 uM
Experiment [19] deals with T7, Casein kinase II (Homo sapiens) (UniProt P67870+P68400+P19784). As to conditions: Sf9, at 10 µM.
Description: Inhibition of His-tagged human CK2 expressed in Sf9 cells at 10 uM
The species named for experiment [20] is Oryctolagus cuniculus. The note with it: Muscle tissue, at 10 µM. This is another data set of the same source.
Description: Inhibition of PHK from rabbit skeletal muscle at 10 uM
Experiment [21] has as its target Rho-associated protein kinase 2 (Rattus norvegicus) (UniProt Q62868). As to conditions: Sf9, at 10 µM.
Description: Inhibition of rat ROCK2 expressed in Sf9 cells at 10 uM
Experiment [22] in a line: Inhibition of PHK from rabbit skeletal muscle. It is filed as tissue-based, Oryctolagus cuniculus, Muscle tissue.
Experiment [23] addresses T8, Ribosomal protein S6 kinase alpha-5 (Homo sapiens, UniProt O75582). As to conditions: Sf9, at 10 µM.
Description: Inhibition of His-tagged human MSK1 expressed in Sf9 cells at 10 uM
Experiment [24] concerns the target Serine/threonine-protein kinase N2 (Homo sapiens) (UniProt Q16513). As to the kind of experiment: Inhibition of His-tagged human PRK2 expressed in HEK293 cells at 10 uM. It is filed as cell-based.
The nature of experiment [25]: Inhibition of MAPKAPK1b from rabbit skeletal muscle. It is filed as tissue-based, Oryctolagus cuniculus, Muscle tissue.
The target of experiment [26] is Serine/threonine-protein kinase N2 (Homo sapiens) (UniProt Q16513). The note with it: HEK293, 20 uM.
Chain of Serine/threonine-protein kinase N2 (Homo sapiens) (Q16513 whole entry, looked up): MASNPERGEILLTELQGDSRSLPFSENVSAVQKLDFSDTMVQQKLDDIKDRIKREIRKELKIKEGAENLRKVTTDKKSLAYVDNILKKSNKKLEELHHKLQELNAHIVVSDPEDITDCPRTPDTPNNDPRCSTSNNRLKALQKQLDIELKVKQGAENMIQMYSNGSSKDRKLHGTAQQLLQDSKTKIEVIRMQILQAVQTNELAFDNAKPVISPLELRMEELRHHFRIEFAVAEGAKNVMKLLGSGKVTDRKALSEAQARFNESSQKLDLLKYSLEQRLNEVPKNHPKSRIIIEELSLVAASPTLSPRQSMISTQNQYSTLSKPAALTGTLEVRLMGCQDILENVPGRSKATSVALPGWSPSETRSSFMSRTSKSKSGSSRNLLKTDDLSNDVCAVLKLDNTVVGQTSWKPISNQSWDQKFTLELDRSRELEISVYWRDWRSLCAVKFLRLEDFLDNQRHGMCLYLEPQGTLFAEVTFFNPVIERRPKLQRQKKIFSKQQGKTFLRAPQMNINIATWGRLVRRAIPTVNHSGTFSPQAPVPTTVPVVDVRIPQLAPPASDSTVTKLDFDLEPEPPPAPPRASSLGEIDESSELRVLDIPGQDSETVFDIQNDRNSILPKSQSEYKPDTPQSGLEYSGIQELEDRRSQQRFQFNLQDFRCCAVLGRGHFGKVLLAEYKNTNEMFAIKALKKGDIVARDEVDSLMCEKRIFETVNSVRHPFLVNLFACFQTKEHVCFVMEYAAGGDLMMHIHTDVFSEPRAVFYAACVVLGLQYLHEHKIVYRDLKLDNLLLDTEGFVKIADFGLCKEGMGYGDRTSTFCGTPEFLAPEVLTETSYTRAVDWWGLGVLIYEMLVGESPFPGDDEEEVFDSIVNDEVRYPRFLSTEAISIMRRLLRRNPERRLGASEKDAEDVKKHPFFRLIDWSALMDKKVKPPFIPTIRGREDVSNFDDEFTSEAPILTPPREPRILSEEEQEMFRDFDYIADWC
Description: Inhibition of His-tagged human PRK2 expressed in HEK293 cells at 20 uM
In experiment [27] the target is T8, Ribosomal protein S6 kinase alpha-5. As to the kind of experiment: Inhibition of His-tagged human MSK1 expressed in Sf9 cells at 20 uM; values are per cent of control.
The target in experiment [28] is T1, Serine/threonine-protein kinase Chk1 (Homo sapiens). As to the kind of experiment: Inhibition of His-tagged human CHK1 expressed in Escherichia coli at 20 uM; values are per cent of control.
Experiment [29] concerns the target Mitogen-activated protein kinase 11 (Homo sapiens) (UniProt Q15759). Briefly: Inhibition of His-tagged human SAPK2b/p38b2 expressed in Escherichia coli at 20 uM; values are per cent of control.
The target in experiment [30] is T5, Ribosomal protein S6 kinase beta-1. Briefly: Inhibition of His-tagged human S6K1 expressed in Escherichia coli at 20 uM; values are per cent of control.
In experiment [31] the target is T7, Casein kinase II (Homo sapiens). As to the kind of experiment: Inhibition of His-tagged human CK2 expressed in Sf9 cells at 20 uM. As to conditions: values are per cent of control.
The target in experiment [32] is Mitogen-activated protein kinase 8 (Homo sapiens) (UniProt P45983). As to the kind of experiment: Inhibition of His-tagged human JNK1a1/SAPK1c expressed in Escherichia coli at 20 uM; values are per cent of control.
For experiment [33], the species on record is Rattus norvegicus. As to the kind of experiment: Inhibition of rat liver AMPK at 20 uM; values are per cent of control.
Experiment [34] is filed under the species Oryctolagus cuniculus. Briefly: Inhibition of PHK from rabbit skeletal muscle at 20 uM; values are per cent of control. The note with it: Muscle tissue.
Experiment [35] is filed under the species Bos taurus. As to the kind of experiment: Inhibition of bovine heart PKA at 20 uM; values are per cent of control.
The target in experiment [36] is T2, Mitogen-activated protein kinase 13 (Homo sapiens). As to the kind of experiment: Inhibition of His-tagged human SAPK4/p38delta expressed in Escherichia coli at 20 uM. The note with it: values are per cent of control.
The target in experiment [37] is Tyrosine-protein kinase Lck (Homo sapiens) (UniProt P06239). The note with it: Sf9, at 10 µM.
Description: Inhibition of His-tagged human LCK expressed in Sf9 cells at 10 uM
Experiment [38] is filed under the species Mus musculus. As to the kind of experiment: Inhibition of EGF-induced activation of MKK1 in mouse […] at 2 nM. Format: cell-based.

pIC50: −log10 of the molar value.

T8 sequence (O75582 whole entry, looked up): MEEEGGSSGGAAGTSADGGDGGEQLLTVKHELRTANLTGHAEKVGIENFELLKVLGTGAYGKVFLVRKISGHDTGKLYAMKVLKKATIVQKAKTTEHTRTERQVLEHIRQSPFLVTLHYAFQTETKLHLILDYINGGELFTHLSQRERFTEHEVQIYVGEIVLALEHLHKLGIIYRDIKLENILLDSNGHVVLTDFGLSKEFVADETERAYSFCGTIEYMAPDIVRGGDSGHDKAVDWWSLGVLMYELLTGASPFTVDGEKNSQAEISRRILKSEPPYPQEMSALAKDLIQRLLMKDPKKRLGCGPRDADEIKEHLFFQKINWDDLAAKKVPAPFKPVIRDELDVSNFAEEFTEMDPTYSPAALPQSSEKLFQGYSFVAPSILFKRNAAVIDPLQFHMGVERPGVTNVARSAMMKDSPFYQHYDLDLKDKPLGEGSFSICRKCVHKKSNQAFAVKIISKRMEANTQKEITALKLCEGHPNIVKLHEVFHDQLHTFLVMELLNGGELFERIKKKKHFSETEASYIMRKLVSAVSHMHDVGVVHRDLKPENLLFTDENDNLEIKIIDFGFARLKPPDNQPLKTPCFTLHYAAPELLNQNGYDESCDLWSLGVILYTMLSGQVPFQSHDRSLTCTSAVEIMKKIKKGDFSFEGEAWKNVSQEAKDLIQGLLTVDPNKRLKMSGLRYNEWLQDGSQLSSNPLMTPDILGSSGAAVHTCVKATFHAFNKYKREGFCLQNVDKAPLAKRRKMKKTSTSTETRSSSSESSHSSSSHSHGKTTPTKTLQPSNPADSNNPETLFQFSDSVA
Chain of Rho-associated protein kinase 2 (Rattus norvegicus) (Q62868 whole entry, looked up): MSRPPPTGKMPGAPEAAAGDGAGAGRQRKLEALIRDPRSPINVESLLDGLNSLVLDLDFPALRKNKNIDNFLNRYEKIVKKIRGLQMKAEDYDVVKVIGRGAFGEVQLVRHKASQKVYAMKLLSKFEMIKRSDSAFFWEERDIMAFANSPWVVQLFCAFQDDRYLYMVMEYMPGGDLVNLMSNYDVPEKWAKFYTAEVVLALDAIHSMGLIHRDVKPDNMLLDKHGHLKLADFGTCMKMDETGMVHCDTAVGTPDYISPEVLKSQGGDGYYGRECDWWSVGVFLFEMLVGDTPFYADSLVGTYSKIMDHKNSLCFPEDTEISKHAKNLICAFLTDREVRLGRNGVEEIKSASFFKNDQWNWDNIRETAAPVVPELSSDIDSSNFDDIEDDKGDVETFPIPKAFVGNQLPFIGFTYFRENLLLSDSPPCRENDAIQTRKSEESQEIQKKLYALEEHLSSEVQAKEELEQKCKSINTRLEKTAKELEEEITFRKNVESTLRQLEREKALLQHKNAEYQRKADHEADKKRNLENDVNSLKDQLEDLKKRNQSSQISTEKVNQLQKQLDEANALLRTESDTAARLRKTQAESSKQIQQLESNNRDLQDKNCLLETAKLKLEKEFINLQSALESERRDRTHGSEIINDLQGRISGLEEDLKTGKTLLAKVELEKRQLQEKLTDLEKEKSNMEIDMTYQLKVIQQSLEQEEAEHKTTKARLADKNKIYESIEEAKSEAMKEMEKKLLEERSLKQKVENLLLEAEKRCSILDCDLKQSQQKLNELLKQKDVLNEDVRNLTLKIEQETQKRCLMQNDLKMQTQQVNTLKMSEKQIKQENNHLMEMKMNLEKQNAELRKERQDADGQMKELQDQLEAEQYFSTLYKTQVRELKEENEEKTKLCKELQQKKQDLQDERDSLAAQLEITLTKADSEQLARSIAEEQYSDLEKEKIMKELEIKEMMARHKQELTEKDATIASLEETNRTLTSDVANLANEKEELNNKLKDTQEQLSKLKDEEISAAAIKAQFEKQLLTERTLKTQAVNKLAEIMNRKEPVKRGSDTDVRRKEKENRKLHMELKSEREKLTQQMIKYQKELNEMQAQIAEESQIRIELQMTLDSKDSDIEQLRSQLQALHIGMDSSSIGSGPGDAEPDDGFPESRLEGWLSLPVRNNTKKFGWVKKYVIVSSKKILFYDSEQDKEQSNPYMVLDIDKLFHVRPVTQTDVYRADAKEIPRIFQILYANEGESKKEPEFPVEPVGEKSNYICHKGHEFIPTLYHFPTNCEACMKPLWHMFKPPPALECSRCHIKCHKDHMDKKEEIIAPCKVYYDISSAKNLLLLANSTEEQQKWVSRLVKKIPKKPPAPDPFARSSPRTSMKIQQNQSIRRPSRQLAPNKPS
Chain of Glycogen synthase kinase-3 beta (P49841 whole entry, looked up): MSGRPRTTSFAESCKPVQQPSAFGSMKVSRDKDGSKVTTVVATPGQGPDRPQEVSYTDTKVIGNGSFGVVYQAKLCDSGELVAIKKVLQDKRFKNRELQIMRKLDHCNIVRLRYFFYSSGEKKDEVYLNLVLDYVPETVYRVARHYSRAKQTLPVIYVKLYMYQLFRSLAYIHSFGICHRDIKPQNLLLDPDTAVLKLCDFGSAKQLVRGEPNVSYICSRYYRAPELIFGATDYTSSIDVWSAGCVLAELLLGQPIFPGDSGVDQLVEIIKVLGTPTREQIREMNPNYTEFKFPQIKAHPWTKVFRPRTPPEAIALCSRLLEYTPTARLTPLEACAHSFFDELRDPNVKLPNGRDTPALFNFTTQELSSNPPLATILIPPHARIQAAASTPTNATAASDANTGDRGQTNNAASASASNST

In the case of `C[C@@H](N)[C@H]1CC[C@H](C(=O)Nc2ccncc2)CC1` [Y-27632], the residual activity in [1] amounted to 99%; in experiment [2], 95%; in [3], 92%; in [4], 91%; in [5], 94%; in experiment [6], 98%. Also, the residual activity in [7] turned out to be 94%; in [9], 109%; in experiment [10], 104%; in experiment [11] it was 107%; in experiment [12] it was 98%; in experiment [13], 94%. For the same compound, the residual activity in [14] was 90%; in experiment [15] it was 95%; in experiment [16] it was 103%; in experiment [17], 100%; in experiment [18], 99%; in experiment [19], 98%. Moreover, the residual activity was 13% in experiment [21] and 57% in [23]. Also, the level, % of control was 72% in experiment [8] and 81% in experiment [20]. Besides, the pIC50 in [22] was 4.36; in [25], 4.72. The compound further displayed an inhibition in experiment [24] of 6%.
Compound `O=S(=O)(c1cccc2cnccc12)N1CCCNCC1` came in with an inhibition in experiment [26] of 15%. Also, the residual activity amounted to 19% in experiment [27]; 82% in [28]; 97% in [29]; 32% in experiment [30]; 102% in [31]; 96% in experiment [32]. The residual activity was 77% in [33], 35% in [35] and 103% in experiment [36]. In experiment [34], this compound had a level, % of control of 58%.
For `O=C(NOCC1CC1)c1ccc(F)c(F)c1Nc1ccc(I)cc1Cl`, the residual activity worked out at 104% in experiment [1]; 99% in [37]; 98% in experiment [2]; 83% in [3]; 105% in experiment [4]; 107% in experiment [5]. Further, the residual activity in [6] worked out at 99%; in experiment [7], 100%; in experiment [9] it was 111%; in experiment [10] it was 71%; in [11], 119%; in experiment [12] it was 102%. Besides, the residual activity in experiment [14] turned out to be 89%; in [15] it was 89%; in experiment [17], 100%; in experiment [18] it was 98%; in experiment [19], 96%; in experiment [21], 107%. Further, the residual activity in experiment [23] is 118%. For the same compound, the inhibition in experiment [38] amounted to 50%. Also, in experiment [20], the level, % of control came out at 117%.
